# Measurements taken from PubChem BioAssay (NCI).
#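 The compound was tested at five concentrations on cells cultured in 96-well plates, with a 48-hour exposure period. TGI marks complete inhibition of growth.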
# Columns and labels:
# Test in all cases: NCI tumour cell line growth inhibition, 48 h
# NCI-H226 lung = tested on: NCI-H226 lung
# LXFL 529 NSCLC = tested on: LXFL 529 NSCLC
# OVCAR-3 ovarian = tested on: OVCAR-3 ovarian
# OVCAR-8 ovarian = tested on: OVCAR-8 ovarian
# U251 CNS = tested on: U251 CNS
# CCRF-CEM leukemia = tested on: CCRF-CEM leukemia
# ACHN renal = tested on: ACHN renal
# SNB-78 CNS = tested on: SNB-78 CNS
# NCI-H522 lung = tested on: NCI-H522 lung
# SK-MEL-2 melanoma = tested on: SK-MEL-2 melanoma
# TK-10 renal = tested on: TK-10 renal
# HOP-62 NSCLC = tested on: HOP-62 NSCLC
# HT29 colon = tested on: HT29 colon
# MALME-3M melanoma = tested on: MALME-3M melanoma
# SW-620 colon = tested on: SW-620 colon
# RPMI-8226 leukemia = tested on: RPMI-8226 leukemia
# M14 melanoma = tested on: M14 melanoma
# KM12 colon = tested on: KM12 colon
# HCC-2998 colon = tested on: HCC-2998 colon
# HCT-15 colon = tested on: HCT-15 colon
# XF 498 CNS = tested on: XF 498 CNS
# SR leukemia = tested on: SR leukemia
# SK-OV-3 ovarian = tested on: SK-OV-3 ovarian
# HL-60(TB) leukemia = tested on: HL-60(TB) leukemia
# OVCAR-4 ovarian = tested on: OVCAR-4 ovarian
# DLD-1 colon = tested on: DLD-1 colon
# UO-31 renal = tested on: UO-31 renal
# HOP-92 NSCLC = tested on: HOP-92 NSCLC
# DMS 114 small cell lung = tested on: DMS 114 small cell lung
# CAKI-1 renal = tested on: CAKI-1 renal
# UACC-257 melanoma = tested on: UACC-257 melanoma
# UACC-62 melanoma = tested on: UACC-62 melanoma
# EKVX NSCLC = tested on: EKVX NSCLC
# SK-MEL-5 melanoma = tested on: SK-MEL-5 melanoma
# SNB-19 CNS = tested on: SNB-19 CNS
# LOX IMVI melanoma = tested on: LOX IMVI melanoma
# 786-0 renal = tested on: 786-0 renal
# SK-MEL-28 melanoma = tested on: SK-MEL-28 melanoma
# NCI-H460 lung = tested on: NCI-H460 lung
# SN12C renal = tested on: SN12C renal
# RXF 393 renal = tested on: RXF 393 renal
# M19-MEL melanoma = tested on: M19-MEL melanoma
# SF-268 CNS = tested on: SF-268 CNS
# SNB-75 CNS = tested on: SNB-75 CNS
# IGROV1 ovarian = tested on: IGROV1 ovarian
# NCI-H23 lung = tested on: NCI-H23 lung
# OVCAR-5 ovarian = tested on: OVCAR-5 ovarian
# K-562 leukemia = tested on: K-562 leukemia
# A498 renal = tested on: A498 renal
# DMS 273 small cell lung = tested on: DMS 273 small cell lung
# SF-539 CNS = tested on: SF-539 CNS
# KM20L2 colon = tested on: KM20L2 colon
# COLO 205 colon = tested on: COLO 205 colon
# MOLT-4 leukemia = tested on: MOLT-4 leukemia
# SF-295 CNS = tested on: SF-295 CNS
# HOP-18 NSCLC = tested on: HOP-18 NSCLC
# A549 NSCLC = tested on: A549 NSCLC
# HCT-116 colon = tested on: HCT-116 colon
structure (smiles),measurement,setting,value
O=C1C(=O)c2ccccc2C(O)=C1CCCc1ccc(Oc2ccccc2)cc1,TGI,NCI-H226 lung,47.9 µM
same,TGI,LXFL 529 NSCLC,> 100 µM
same,TGI,OVCAR-3 ovarian,24.9 µM
same,TGI,OVCAR-8 ovarian,> 100 µM
same,TGI,U251 CNS,> 100 µM
same,TGI,CCRF-CEM leukemia,> 100 µM
same,TGI,ACHN renal,76.5 µM
same,TGI,SNB-78 CNS,97.3 µM
same,TGI,NCI-H522 lung,34.2 µM
same,TGI,SK-MEL-2 melanoma,83.4 µM
same,TGI,TK-10 renal,> 100 µM
same,TGI,HOP-62 NSCLC,23.2 µM
same,TGI,HT29 colon,75.2 µM
same,TGI,MALME-3M melanoma,75 µM
same,TGI,SW-620 colon,> 100 µM
same,TGI,RPMI-8226 leukemia,> 100 µM
same,TGI,M14 melanoma,24.5 µM
same,TGI,KM12 colon,> 100 µM
same,TGI,HCC-2998 colon,74.3 µM
same,TGI,HCT-15 colon,79.7 µM
same,TGI,XF 498 CNS,66.1 µM
same,TGI,SR leukemia,> 100 µM
same,TGI,SK-OV-3 ovarian,> 100 µM
same,TGI,HL-60(TB) leukemia,47.9 µM
same,TGI,OVCAR-4 ovarian,> 100 µM
same,TGI,DLD-1 colon,> 100 µM
same,TGI,UO-31 renal,32.6 µM
same,TGI,HOP-92 NSCLC,49.5 µM
same,TGI,DMS 114 small cell lung,23.5 µM
same,TGI,CAKI-1 renal,70.5 µM
same,TGI,UACC-257 melanoma,23.9 µM
same,TGI,UACC-62 melanoma,15 µM
same,TGI,EKVX NSCLC,> 100 µM
same,TGI,SK-MEL-5 melanoma,10.6 µM
same,TGI,SNB-19 CNS,> 100 µM
same,TGI,LOX IMVI melanoma,15.3 µM
same,TGI,786-0 renal,35.4 µM
same,TGI,SK-MEL-28 melanoma,> 100 µM
same,TGI,NCI-H460 lung,41.9 µM
same,TGI,SN12C renal,> 100 µM
same,TGI,RXF 393 renal,64.1 µM
same,TGI,M19-MEL melanoma,37.9 µM
same,TGI,SF-268 CNS,> 100 µM
same,TGI,SNB-75 CNS,73.9 µM
same,TGI,IGROV1 ovarian,84.3 µM
same,TGI,NCI-H23 lung,19.1 µM
same,TGI,OVCAR-5 ovarian,> 100 µM
same,TGI,K-562 leukemia,> 100 µM
same,TGI,A498 renal,90.5 µM
same,TGI,DMS 273 small cell lung,51.8 µM
same,TGI,SF-539 CNS,28 µM
same,TGI,KM20L2 colon,73.2 µM
same,TGI,COLO 205 colon,32.1 µM
same,TGI,MOLT-4 leukemia,> 100 µM
same,TGI,SF-295 CNS,74.3 µM
COC(=O)C1=C(c2cc(OC)c(OC)c(OC)c2)OC(c2ccc(OC)c(OC)c2)C1 (stereo not given),TGI,NCI-H226 lung,> 100 µM
same,TGI,LXFL 529 NSCLC,> 100 µM
same,TGI,OVCAR-3 ovarian,> 100 µM
same,TGI,OVCAR-8 ovarian,> 100 µM
same,TGI,U251 CNS,> 100 µM
same,TGI,CCRF-CEM leukemia,> 100 µM
same,TGI,HOP-18 NSCLC,> 100 µM
same,TGI,ACHN renal,> 100 µM
same,TGI,SK-MEL-2 melanoma,> 100 µM
same,TGI,TK-10 renal,> 100 µM
same,TGI,HOP-62 NSCLC,> 100 µM
same,TGI,HT29 colon,> 100 µM
same,TGI,MALME-3M melanoma,> 100 µM
same,TGI,SW-620 colon,87 µM
same,TGI,RPMI-8226 leukemia,> 100 µM
same,TGI,M14 melanoma,> 100 µM
same,TGI,KM12 colon,> 100 µM
same,TGI,HCC-2998 colon,> 100 µM
same,TGI,HCT-15 colon,> 100 µM
same,TGI,XF 498 CNS,> 100 µM
same,TGI,SR leukemia,> 100 µM
same,TGI,SK-OV-3 ovarian,> 100 µM
same,TGI,HL-60(TB) leukemia,> 100 µM
same,TGI,A549 NSCLC,> 100 µM
same,TGI,OVCAR-4 ovarian,> 100 µM
same,TGI,DLD-1 colon,> 100 µM
same,TGI,UO-31 renal,> 100 µM
same,TGI,HOP-92 NSCLC,> 100 µM
same,TGI,DMS 114 small cell lung,81.3 µM
same,TGI,CAKI-1 renal,> 100 µM
same,TGI,UACC-257 melanoma,> 100 µM
same,TGI,UACC-62 melanoma,> 100 µM
same,TGI,HCT-116 colon,> 100 µM
same,TGI,EKVX NSCLC,> 100 µM
same,TGI,SK-MEL-5 melanoma,93.7 µM
same,TGI,LOX IMVI melanoma,> 100 µM
same,TGI,786-0 renal,> 100 µM
same,TGI,SK-MEL-28 melanoma,> 100 µM
same,TGI,NCI-H460 lung,> 100 µM
same,TGI,SN12C renal,> 100 µM
same,TGI,RXF 393 renal,> 100 µM
same,TGI,M19-MEL melanoma,> 100 µM
same,TGI,SF-268 CNS,> 100 µM
same,TGI,SNB-75 CNS,> 100 µM
same,TGI,IGROV1 ovarian,> 100 µM
same,TGI,NCI-H23 lung,> 100 µM
same,TGI,OVCAR-5 ovarian,> 100 µM
same,TGI,K-562 leukemia,> 100 µM
same,TGI,A498 renal,69.3 µM
same,TGI,DMS 273 small cell lung,> 100 µM
same,TGI,SF-539 CNS,> 100 µM
same,TGI,KM20L2 colon,> 100 µM
same,TGI,COLO 205 colon,42.6 µM
same,TGI,MOLT-4 leukemia,51.2 µM
same,TGI,SF-295 CNS,> 100 µM
